Laboratory results taken from patent US10174013B2, “Benzimidazole derivatives as kinase inhibitors” (SELVITA S.A., priority 2012, dated 2019).
Where two headings read alike, the source gives them in different places.

Assays:
Pim-1 = Pim-1 (Homo sapiens (Human), UniProt P11309); assay: ADP-Glo Kinase Assay, Pim-1; type: biochemical; details: 1 μM compound; for inhibition at 1 µM: read-out: Pim-1 % INH (1 μM)
Procedure, shortened: (§1)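 Compounds were diluted in assay buffer to 1000 nM and incubated with kinase, substrate and ATP at apparent Km. Remaining ATP was depleted, ADP converted to ATP and detected by luciferase; percent inhibition came from normalized luminescence.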

FLT3wt = FLT3wt (Homo sapiens (Human), UniProt P36888); assay: ADP-Glo Kinase Assay, Flt3 wt; type: biochemical; details: 1 μM compound; for inhibition at 1 µM: read-out: Flt3wt % INH (1 μM)
Procedure, shortened: as §1

MOLM16 cells = assay: Growth inhibition, MTS assay, MOLM16; type: cell-based, Human; details: Homo sapiens, MOLM16, 72 h, MTS cell viability, read-out: MOLM 16 ED50
Excerpt: (§2) The following cell lines, were obtained and used in tests as outlined below: • Human myelomonocytic, biphenotypic leukemia MV4-11 cells (harboring a Flt3-ITD mutation); • Human Acute Myeloid Leukemia MOLM16 cells; • Human Acute Myeloid Leukemia MOLM13 cells (harboring a Flt3-ITD mutation); • Human Myeloid Leukemia KG-1 cells; • Human erythroleukemia HEL92 cells; • Human mantle cell lymphoma Jeko-1 cells; • Human hepatocellular carcinoma HepG2 cells; and • Human colon adenocarcinoma SW-480 cells.
(§3) The assays were carried out according to the following protocol, which is described as an example for the MV4-11 cells:
(§4) Ten thousand MV4-11 cells were inoculated into each well of a 96-well microplate (manufactured by Corning Corp.) using Iscove's MDM medium (culture medium) containing 10% fetal calf serum (FCS). The same day, a dimethyl sulfoxide (DMSO) solution of each test compound prepared in a concentration of 10 mmol/L was further diluted with DMSO to the desired concentrations (0.1, 0.5, 1, 2.5, 5 and 10 micromol/L), and the diluted solution was added to each well. The individual wells were further cultured in 5% carbon dioxide at 37° C. for 72 hours. […] Briefly, 10 μl MTS (3-(4,5-Dimethyl-2-thiazolyl)-5-(carboxymethoxyphenyl)-2-(4-sulfophenyl)-2H-tetrazolium was added to each well, and culturing was performed in 5% carbon dioxide at 37° C. for 2 hours. After this incubation and using a microplate spectrophotometer (Synergy 2 multi-mode microplate reader (BioTek)), the absorbance of each well was measured at 490 nm. The value for cells not incubated with a test compound was designated as 100%. By comparing these values with the absorbance difference obtained at the well in which each test compound was added, the cell viability (% viability) after treatment with the test compound was calculated.

HepG2 cells = assay: Growth inhibition, MTS assay, HepG2; type: cell-based, Human; details: MTS cell viability, read-out: HepG2 ED50
Pim-2 = Pim-2 (Homo sapiens (Human), UniProt Q9P1W9); assay: ADP-Glo Kinase Assay, Pim-2; type: biochemical; details: 1 μM compound; for inhibition at 1 µM: read-out: Pim-2 % INH (1 μM)
Procedure, shortened: as §1

DYRK1 = DYRK1 (Homo sapiens (Human), UniProt Q13627); assay: ADP-Glo Kinase Assay, DYRK1; type: biochemical; details: 1 μM compound; for inhibition at 1 µM: read-out: DYRK1A % INH (1 μM)
Procedure, shortened: as §1

Pim-3 = Pim-3 (Homo sapiens (Human), UniProt Q86V86); assay: ADP-Glo Kinase Assay, Pim-3; type: biochemical; details: 1 μM compound; for inhibition at 1 µM: read-out: Pim-3 % INH (1 μM)
Procedure, shortened: as §1

CDK2/E = CDK2/E (Homo sapiens (Human), UniProt P24941); assay: ADP-Glo Kinase Assay, CDK2/E; type: biochemical; details: 1 μM compound; for inhibition at 1 µM: read-out: CDK2/E % INH (1 μM)
Procedure, shortened: as §1

CYP3A4 = CYP3A4 (Homo sapiens (Human), UniProt P08684); assay: Cytochrome P450 inhibition, fluorescence, CYP3A4; type: in vitro ADME; details: recombinant CYP3A4, fluorescence detection; read-out: CYP inhibition (CYP 3A4 screening, IC50 class)
Description: The assays for cytochrome P450 inhibition facilitate the identification of drug candidates with lower potential for drug-drug interactions (weak enzymes inhibitors). In vitro experiments were conducted to determine whether a drug inhibits a specific CYP enzyme. The experiments comprised the incubation of the drug with probe substrates for the CYP enzymes, wherein the following recombinant cytochrome P450 isoforms were employed: CYP1A2, CYP2C8, CYP2C9, CYP2C19, CYP2D6 and CYP3A4, together with various probe substrates enabling fluorescence detection. The protocol uses a single substrate concentration near the apparent Km and multiple compound concentrations.
The assay was performed in 96-well microtiter plates. The row designations were A through H and the column designations were 1 through 12. […] Each compound (see Table 6 for tested compounds) was added to the wells in column 1 and serially diluted to the wells in column 8. Wells 9 and 10 were control wells which contained no test compound (therefore no inhibition-full signal is detected.) The wells in columns 11 and 12 were blanks, where STOP solution was added prior to the addition of the enzyme/substrate mix to the NADPH regenerating system (the only signal present in these wells is background noise.) The assay was conducted in a final volume of 0.2 ml per well.
The stock solutions of the tested compounds were prepared in DMSO at 10 mM concentration. […] After mixing the compounds with solution containing NADPH-cofactors, the mixed plate was preincubated in a 37° C. incubator for at least 10 minutes; next, the fluorescence of compounds using recommended excitation/emission filters was measured in order to eliminate false results originating from autofluorescence of the compounds. In the following step, the enzyme/substrate mix was added to columns 1 through 10 and the plates were incubated at 37° C. for specific times depending on the CYP tested (incubation times ranged from 30 to 45 minutes). After adding STOP SOLUTION to all wells and respective enzyme/substrate mix to the wells in columns 11 and 12, the plate was scanned with a fluorescent plate scanner. The excitation/emission filters used for the specific assays are described in the GenTest Screening Kit instruction manual.

MV4-11 cells = assay: Growth inhibition, MTS assay, MV4-11; type: cell-based, Human; details: MTS cell viability, read-out: MV4-11 ED50
MOLM13 cells = assay: Growth inhibition, MTS assay, MOLM13; type: cell-based, Human; details: 72 hours, MTS cell viability, read-out: MOLM 13 ED50
Excerpt: as §2, §3, §4

KG-1 cells = assay: Growth inhibition, MTS assay, KG-1; type: cell-based, Human; details: 72 hours, MTS cell viability
Excerpt: as §2, §3, §4

Jeko-1 cells = assay: Growth inhibition, MTS assay, Jeko-1; type: cell-based, Human; details: 72 hours, MTS cell viability, read-out: Jeko-1 ED50
HEL92 cells = assay: Growth inhibition, MTS assay, HEL92; type: cell-based, Human; details: MTS cell viability, read-out: HEL92 ED50
hERG potassium channel = hERG potassium channel (Homo sapiens (Human), UniProt Q12809); assay: hERG automated patch clamp assay (QPatch HT)
Procedure, shortened: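 Automated whole-cell patch clamp of hERG current in mammalian cells at room temperature. Compounds applied at 0.1, 1, 3, 10 and 30 μM, 3 min per concentration, n≥2 cells each.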

SW-480 cells = assay: Growth inhibition, MTS assay, SW-480; type: cell-based, Human; details: 72 hours, MTS cell viability; read-out: SW-480 ED50

Sequence of Pim-1 (P11309 whole entry): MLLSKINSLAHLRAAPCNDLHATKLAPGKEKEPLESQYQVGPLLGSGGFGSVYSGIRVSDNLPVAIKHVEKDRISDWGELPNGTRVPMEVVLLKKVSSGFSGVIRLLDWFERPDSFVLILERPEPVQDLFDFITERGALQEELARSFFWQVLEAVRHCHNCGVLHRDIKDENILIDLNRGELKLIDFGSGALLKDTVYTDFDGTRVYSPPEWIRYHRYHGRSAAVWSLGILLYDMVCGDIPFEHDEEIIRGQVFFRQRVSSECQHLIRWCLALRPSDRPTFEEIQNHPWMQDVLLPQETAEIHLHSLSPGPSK
Sequence of FLT3wt (P36888 27-993): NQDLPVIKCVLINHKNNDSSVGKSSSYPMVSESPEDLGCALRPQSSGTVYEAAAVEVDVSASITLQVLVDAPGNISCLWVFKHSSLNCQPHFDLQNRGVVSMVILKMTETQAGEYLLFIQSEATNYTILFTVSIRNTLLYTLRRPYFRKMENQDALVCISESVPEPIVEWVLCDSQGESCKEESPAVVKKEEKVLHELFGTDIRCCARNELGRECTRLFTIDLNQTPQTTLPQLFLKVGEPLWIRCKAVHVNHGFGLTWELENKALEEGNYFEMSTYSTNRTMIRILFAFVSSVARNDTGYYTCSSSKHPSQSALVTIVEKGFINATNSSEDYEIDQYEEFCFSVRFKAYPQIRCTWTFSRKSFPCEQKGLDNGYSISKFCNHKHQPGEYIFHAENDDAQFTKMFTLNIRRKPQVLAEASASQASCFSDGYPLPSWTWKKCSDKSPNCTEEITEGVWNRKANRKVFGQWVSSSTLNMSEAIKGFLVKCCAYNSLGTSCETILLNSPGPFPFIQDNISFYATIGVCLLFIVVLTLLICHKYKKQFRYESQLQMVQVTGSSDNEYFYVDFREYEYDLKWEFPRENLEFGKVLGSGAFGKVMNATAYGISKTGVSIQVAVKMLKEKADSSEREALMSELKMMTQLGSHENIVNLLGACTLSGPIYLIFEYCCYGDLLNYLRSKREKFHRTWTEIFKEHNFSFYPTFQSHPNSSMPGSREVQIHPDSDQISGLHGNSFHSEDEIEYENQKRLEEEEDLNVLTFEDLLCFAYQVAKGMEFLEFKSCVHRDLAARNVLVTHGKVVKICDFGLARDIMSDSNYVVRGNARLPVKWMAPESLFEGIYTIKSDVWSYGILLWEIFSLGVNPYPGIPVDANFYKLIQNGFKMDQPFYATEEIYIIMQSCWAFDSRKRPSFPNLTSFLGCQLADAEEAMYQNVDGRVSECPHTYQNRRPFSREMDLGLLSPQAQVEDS
Sequence of Pim-2 (Q9P1W9 whole entry): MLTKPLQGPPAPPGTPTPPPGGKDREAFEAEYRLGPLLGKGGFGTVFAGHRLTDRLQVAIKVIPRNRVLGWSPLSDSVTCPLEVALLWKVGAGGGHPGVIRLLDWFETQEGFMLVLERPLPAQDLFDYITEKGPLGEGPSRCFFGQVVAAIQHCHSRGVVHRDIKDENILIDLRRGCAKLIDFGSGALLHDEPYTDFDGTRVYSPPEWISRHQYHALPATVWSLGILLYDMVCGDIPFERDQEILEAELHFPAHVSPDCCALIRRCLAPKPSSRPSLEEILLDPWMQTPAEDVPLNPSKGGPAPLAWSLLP
Sequence of CYP3A4 (P08684 whole entry, canonical isoform): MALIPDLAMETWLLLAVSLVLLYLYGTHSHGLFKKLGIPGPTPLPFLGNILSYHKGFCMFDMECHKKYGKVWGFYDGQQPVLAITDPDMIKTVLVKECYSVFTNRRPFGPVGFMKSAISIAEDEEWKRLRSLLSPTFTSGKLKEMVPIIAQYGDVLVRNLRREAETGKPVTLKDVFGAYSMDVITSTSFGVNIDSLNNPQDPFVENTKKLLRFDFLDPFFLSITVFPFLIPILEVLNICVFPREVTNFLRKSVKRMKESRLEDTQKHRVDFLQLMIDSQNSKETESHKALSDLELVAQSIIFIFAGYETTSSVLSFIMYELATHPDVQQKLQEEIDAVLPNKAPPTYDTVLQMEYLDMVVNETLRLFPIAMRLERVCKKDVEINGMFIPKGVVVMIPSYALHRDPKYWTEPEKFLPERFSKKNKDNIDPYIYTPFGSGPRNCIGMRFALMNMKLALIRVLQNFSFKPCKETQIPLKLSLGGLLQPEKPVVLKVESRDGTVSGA
Sequence of hERG potassium channel (Q12809 whole entry): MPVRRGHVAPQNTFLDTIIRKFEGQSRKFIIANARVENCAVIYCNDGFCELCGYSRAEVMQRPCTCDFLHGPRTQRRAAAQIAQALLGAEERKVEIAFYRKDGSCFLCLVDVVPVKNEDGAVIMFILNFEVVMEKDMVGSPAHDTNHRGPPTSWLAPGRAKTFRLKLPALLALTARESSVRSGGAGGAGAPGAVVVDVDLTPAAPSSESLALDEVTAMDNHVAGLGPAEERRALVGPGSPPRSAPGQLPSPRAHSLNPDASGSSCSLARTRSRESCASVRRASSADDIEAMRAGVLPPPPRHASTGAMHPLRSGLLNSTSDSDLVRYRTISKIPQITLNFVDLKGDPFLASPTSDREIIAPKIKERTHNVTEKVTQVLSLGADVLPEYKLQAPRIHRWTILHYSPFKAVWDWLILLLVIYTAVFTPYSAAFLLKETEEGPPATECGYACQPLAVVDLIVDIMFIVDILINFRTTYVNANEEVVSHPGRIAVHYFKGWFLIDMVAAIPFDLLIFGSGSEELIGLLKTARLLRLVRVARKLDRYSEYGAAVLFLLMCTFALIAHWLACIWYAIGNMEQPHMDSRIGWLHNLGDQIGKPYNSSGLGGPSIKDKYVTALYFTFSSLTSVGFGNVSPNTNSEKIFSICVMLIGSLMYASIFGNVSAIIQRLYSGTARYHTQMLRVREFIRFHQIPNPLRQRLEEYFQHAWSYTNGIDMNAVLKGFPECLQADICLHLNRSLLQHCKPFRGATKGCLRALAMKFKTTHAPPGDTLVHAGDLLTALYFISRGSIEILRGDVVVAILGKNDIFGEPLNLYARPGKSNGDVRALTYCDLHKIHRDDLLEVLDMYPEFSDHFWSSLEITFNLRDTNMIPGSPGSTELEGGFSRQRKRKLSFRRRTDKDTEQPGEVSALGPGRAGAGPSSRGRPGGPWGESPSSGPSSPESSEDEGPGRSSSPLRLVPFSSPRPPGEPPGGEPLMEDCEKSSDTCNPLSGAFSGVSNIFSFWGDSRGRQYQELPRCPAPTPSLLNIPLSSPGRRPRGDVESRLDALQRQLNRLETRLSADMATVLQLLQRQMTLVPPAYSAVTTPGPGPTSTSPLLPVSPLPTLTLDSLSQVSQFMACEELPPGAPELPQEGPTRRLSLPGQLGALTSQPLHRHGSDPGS

SMILES	Pim-1 % INH (1 μM) (Pim-1) [%]	Flt3wt % INH (1 μM) (FLT3wt) [%]	IC50 (MOLM16 cells) [µM]	IC50 (HepG2 cells; 72 hours) [µM]	Pim-2 % INH (1 μM) (Pim-2) [%]	DYRK1A % INH (1 μM) (DYRK1) [%]	Pim-3 % INH (1 μM) (Pim-3) [%]	CDK2/E % INH (1 μM) (CDK2/E) [%]	IC50 (CYP3A4) [µM]	IC50 (MV4-11 cells; 72 hours) [µM]	inhibition at 1 µM (Pim-1) [%]	inhibition at 1 µM (FLT3wt) [%]	inhibition at 1 µM (Pim-2) [%]	IC50 (MOLM13 cells; Homo sapiens, MOLM-13) [µM]	inhibition at 1 µM (DYRK1) [%]	inhibition at 1 µM (Pim-3) [%]	inhibition at 1 µM (CDK2/E) [%]	IC50 (MV4-11 cells; Homo sapiens, MV4-11, 72 h) [µM]	KG-1 ED50 (KG-1 cells) [µM]	IC50 (HEL92 cells; 72 hours) [µM]	further results
CCn1c(N[C@H]2CCCNC2)nc2c([N+](=O)[O-])c(Br)c(Br)cc21 [Example 1AA]	>95	11		2.1	53	40	>95	<5	1.1 to 3.3	1.3										4.6	IC50 (hERG potassium channel): 2.27 µM; IC50 (SW-480 cells): 5.5 µM; IC50 (Jeko-1 cells): 1.8 µM
CCn1c(N2CCC[C@H](N)C2)nc2c(C#N)c(Br)c(Br)cc21 [Example 1DQ]			0.1								> 95	< 5	53	2.8	38	86	< 5	0.9	0.5		IC50 (HepG2 cells; Homo sapiens, HepG2, 72 h): 1.4 µM; IC50 (HEL92 cells; Homo sapiens, 72 h): 7.6 µM; IC50 (Jeko-1 cells; Homo sapiens, JeKo-1): 1.6 µM
CC(C)n1c(N2CC[C@@H](N)C2)nc2c([N+](=O)[O-])c(Br)c(Br)cc21 [Example 1AY]	>95	60		1.5	89	87	>95			0.5										1.9	IC50 (MOLM13 cells): 0.9 µM
CCn1c(N2CCC(N)CC2)nc2c(C#N)c(Br)c(Br)cc21 [Example 1DS]			0.32								> 95	8	54	9.9	23		47	0.8	0.2		IC50 (HepG2 cells; Homo sapiens, HepG2, 72 h): 0.6 µM; IC50 (HEL92 cells; Homo sapiens, 72 h): 5.8 µM; IC50 (Jeko-1 cells; Homo sapiens, JeKo-1): 1.4 µM
COCCn1c(N2CCNCC2)nc2c([N+](=O)[O-])c(Br)c(Br)cc21 [Example 1BB]	>95	33		2.0	12	61	65	29		0.7										5.4	IC50 (MOLM13 cells): 3.0 µM

Now from value to molecule, other results behind:

Pim-1 % INH (1 μM) (Pim-1) [%]	Flt3wt % INH (1 μM) (FLT3wt) [%]	IC50 (MOLM16 cells) [µM]	IC50 (HepG2 cells; 72 hours) [µM]	Pim-2 % INH (1 μM) (Pim-2) [%]	DYRK1A % INH (1 μM) (DYRK1) [%]	Pim-3 % INH (1 μM) (Pim-3) [%]	CDK2/E % INH (1 μM) (CDK2/E) [%]	IC50 (CYP3A4) [µM]	IC50 (MV4-11 cells; 72 hours) [µM]	inhibition at 1 µM (Pim-1) [%]	inhibition at 1 µM (FLT3wt) [%]	inhibition at 1 µM (Pim-2) [%]	IC50 (MOLM13 cells; Homo sapiens, MOLM-13) [µM]	inhibition at 1 µM (DYRK1) [%]	inhibition at 1 µM (Pim-3) [%]	inhibition at 1 µM (CDK2/E) [%]	IC50 (MV4-11 cells; Homo sapiens, MV4-11, 72 h) [µM]	SMILES	KG-1 ED50 (KG-1 cells) [µM]	IC50 (HEL92 cells; 72 hours) [µM]	further results
>95	20	0.06	5.2	63	48	92	<5	> 10	0.8									CC(C)n1c(NC2CCNC2)nc2c(C#N)c(Br)c(Br)cc21 (centres unmarked) [Example 1BK]			
		1.1								> 95	< 5	18	6.4	20	62	7	2.3	CC(C)n1c(NC2CCC(N)CC2)nc2c(C#N)c(Br)c(Br)cc21 (centres unmarked) [Example 1DY]	1.9		IC50 (Jeko-1 cells; Homo sapiens, JeKo-1): 2.8 µM
>95	28		3.3	65	53	88	<5	> 10	0.7									CC(C)n1c(N[C@H]2CCNC2)nc2c([N+](=O)[O-])c(Br)c(Br)cc21 [Example 1BD]		5.5	IC50 (MOLM13 cells): 2.1 µM; IC50 (hERG potassium channel): 4.34 µM; IC50 (Jeko-1 cells): 1.6 µM
										> 95	54	33	1	75	81	7	0.4	CC(C)n1c(N2CCNCC2)nc2c(C#N)c(Br)c(Br)cc21 [Example 1BL]			IC50 (HepG2 cells; Homo sapiens, HepG2, 72 h): 1.4 µM; IC50 (HEL92 cells; Homo sapiens, 72 h): 2.4 µM
